According to patent publication US20100129319A1, “TREATMENT OF DISEASE OR INJURY OF THE NERVOUS SYSTEM USING AGENTS THAT DECREASE THE ACTIVITY OF THE MELANOCORTIN 4 RECEPTOR” (priority 2006, published 2010):
Bridges are numbered along the chain shown (N, C = ends). [ ]: non-standard residue; d: D form. d2Nal = N[C@H](Cc1ccc2ccccc2c1)C(=O)O; dPhe(diCl) = diCl-D-Phe

What was measured:
[1] = molecular target: melanocortin 4 receptor (MC4R), murine (Mus musculus) (UniProt P56450); experiment: cell-based or functional assay
melanocortin 4 receptor (MC4R), murine (Mus musculus), sequence (P56450 whole entry): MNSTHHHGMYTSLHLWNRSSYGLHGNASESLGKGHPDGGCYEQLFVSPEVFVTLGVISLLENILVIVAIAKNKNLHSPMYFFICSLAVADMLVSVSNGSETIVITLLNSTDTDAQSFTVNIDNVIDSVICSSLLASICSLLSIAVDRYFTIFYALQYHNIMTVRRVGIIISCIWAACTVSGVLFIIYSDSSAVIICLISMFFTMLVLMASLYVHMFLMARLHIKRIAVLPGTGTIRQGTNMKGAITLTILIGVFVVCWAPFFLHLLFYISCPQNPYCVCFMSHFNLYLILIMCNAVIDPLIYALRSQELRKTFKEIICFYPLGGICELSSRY

[2] = molecular target: MC4R (Homo sapiens, UniProt P32245); conditions: cited from earlier work; for Selectivity (over MC3): MC4R over MC3; for Ki: read-out: Affinity for MC4R (Ki)
MC4R, sequence (P32245 whole entry, species assumed): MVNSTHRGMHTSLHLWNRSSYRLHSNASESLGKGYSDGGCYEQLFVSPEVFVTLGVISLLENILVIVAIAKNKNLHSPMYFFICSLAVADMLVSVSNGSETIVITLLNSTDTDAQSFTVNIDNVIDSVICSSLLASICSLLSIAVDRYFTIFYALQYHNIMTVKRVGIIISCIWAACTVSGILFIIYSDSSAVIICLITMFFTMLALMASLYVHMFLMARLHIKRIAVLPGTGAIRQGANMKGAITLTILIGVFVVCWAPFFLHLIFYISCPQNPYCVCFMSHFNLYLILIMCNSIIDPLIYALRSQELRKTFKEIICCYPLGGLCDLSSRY

[3] = i.c.v. 2×1 nanomoles daily for 6 days or 0.16 nanomoles per hour for 2 weeks; cited from earlier work
[4] = tested on: adult neural stem cells; experiment: BrdU incorporation ELISA in adherent cultures; format: cell-based, mice; conditions: 1-100 nM, 3 days, vs control
Method: (§1) The anterior lateral wall of the lateral ventricle wall (LVW) of 5 week old mice was enzymatically dissociated at 37° C. for 20 min in 0.8 mg/mL hyaluronidase and 0.5 mg/mL trypsin in DMEM containing 4.5 mg/mL glucose and 80 units/mL DNase. The cells were diluted in 5 mL of DMEM/F12 medium (containing B27 supplement, […] HEPES Ph 7.4, 100 units/mL penicillin, and 100 micrograms/mL streptomycin). After passing through a 70 micron strainer, the cells were pelleted at 240×g for 5 minutes, washed and recentrifuged. The supernatant was subsequently removed and the cells resuspended in medium supplemented with 20 nanogram/mL EGF, plated out in culture dishes and incubated at 37° C. Neurosphere cultures were ready to be split approximately 7 days after plating.
To split the neurosphere cultures, neurospheres were collected by centrifugation at 240×g for 5 minutes. The supernatant was discarded and the neurospheres were resuspended in 0.5 mL Trypsin/EDTA in HBSS (1×) and incubated at 37° C. for 2 minutes. During this period, the neurospheres were triturated gently to aid dissociation. Following a further 2 min incubation at 37° C. and trituration, 2 volumes of DMEM-F12+B27 medium were added. […]
DNA synthesis is commonly used to measure cell proliferation. […] After incorporation if the thymidine analogue into DNA, BrdU was detected by immunoassay. […]

[5] = Body weight during i.c.v. infusion (Example 4); format: in vivo, rats
Method: BrdU was administered together with HS014 i.c.v.

[6] = tested on: neuronal stem/progenitor cell proliferation in the SVZ; conditions: i.c.v. infusion of 6.25, 62.5 or 625 ng/day for two weeks
Method: To further characterize MC4R antagonist-stimulation of neogenesis, in vivo studies were performed. The effect of HS014 on proliferation (BrdU incorporation) was tested over a two week period at doses ranging from 6.25 to 625 ng/24h. Administration was done by i.c.v. infusion into the right lateral ventricle. BrdU was administered together with HS014 i.c.v. The animal's body weight was measured throughout the experiment. After termination of the experiment, BrdU expression was detected by immunohistochemistry on brain sections from the subependymal layer of the lateral ventricle wall as well as on the sub granular cells in dentate gyrus. […]
As an additional marker for understanding whether a dose that is effective in eliciting a response controlled by the central nervous system, weight gain was also monitored throughout the experiment by weighing the animals. […]
At the end of the experiment the rats were anaesthetized with sodium pentobarbital (120 mg, i.p.) and transcardially perfused with 90 ml of 0.9% NaCl and 4% PFA solution. […] As detection, Vectastain Elite (Vector) 1/100 was used and finally, developing was done by Sigma fast DAB tablet monitored in microscope, sections were then counterstained by HTX followed by dehydration and clearing.
Quantification was performed using a Nikon eclipse E6000 microscope at a magnification of 40×. […]

[7] = tested on: 6-OHDA-lesioned rat model of Parkinson's disease; experiment: Amphetamine-induced rotation in the 6-OHDA-lesioned rat model of Parkinson's disease (Example 5); format: in vivo; conditions: 62.5 ng/day i.c.v. for 2 weeks
Excerpt: In this study, the neurorestorative action of HS014 (from Sigma Aldrich) was investigated in the 6-hydroxydopamine (6-OHDA)-lesioned rat model of Parkinson's disease where the animals have a partial, unilateral loss of dopaminergic neurons. The lesion is induced by a single injection of 6-OHDA in the median forebrain bundle (see below). Upon amphetamine stimulation, the lesioned animals will display ipsiversive rotational behavior due to the imbalance in dopamine release resulting from the unilateral loss of dopaminergic cells. This allows the functional effects of a compound tested in this model to be quantified by counting the number of amphetamine-induced rotations.
Male Sprague-Dawley rats weighing 280-320 g were housed in a temperature-controlled room under a 12 h light/dark cycle with free access to food and water. Thirty minutes prior to surgery, animals were injected intraperitoneally with pargyline (5 mg/kg) and desipramine (25 mg/kg). Rats were then placed in a stereotactic frame under general anaesthesia (Halothane). A small bur-hole was made in the right side of the skull. Each animal was given a unilateral injection of 4 μg, 6-OHDA (in 2 μl sterile water with 0.1% ascorbic acid) into the right medial forebrain bundle at co-ordinates −2.8 mm from bregma, 2 mm lateral to the midline, and 8.6 mm below skull according to the atlas of Paxinos and Watson. The 6-OHDA injection was made over a 5 min period using a 5 μl Hamilton syringe. The rats were allowed to recover for 5 weeks following the lesion. The animals were then implanted with an Alzet minipump attached to a cannula to allow infusion of HS014 or vehicle into the right lateral ventricle over a period of 2 weeks. The Alzet minipump was removed […].
24 rats were divided into 2 groups, individual rats being randomly assigned to a treatment group based on their baseline rotation (5 weeks post lesion) so they were equally distributed. […] Rotational activity was measured by counting the total number of turns for the duration of the experiment. […] Body weight was also recorded weekly. […]

[8] = tested on: adult neural stem cells; experiment: ATP assay (intracellular ATP, cell number) in suspension cultures; format: cell-based, mice; conditions: for ATP levels: 1-100 nM, 3 days, suspension cultures, vs control
Method: as §1
To split the neurosphere cultures, neurospheres were collected by centrifugation at 240×g for 5 minutes. The supernatant was discarded and the neurospheres were resuspended in 0.5 mL Trypsin/EDTA in HBSS (1×) and incubated at 37° C. for 2 minutes. During this period, the neurospheres were triturated gently to aid dissociation. Following a further 2 min incubation at 37° C. and trituration, 2 volumes of DMEM-F12+B27 medium were added. The cells were pelleted at 220×g for 4 min and resuspended in DMEM/F12+B27-medium containing 10 ng/mL EGF and 5 ng/mL bFGF. Subsequently the cultures were plated out and incubated at 37° C.
Cells were harvested split as in example 1, except for omission of the growth factors in the media, and seeded as suspension cells, at a density of 10,000 cells/well on 96-well plates in DMEM/F12 supplemented with 1, 10 or 100 nM MC4R antagonist or without (control cells). Alternatively, adherent cells were seeded at a density of 30,000 cells/well on poly-D-lysine-coated 96-well plates in DMEM/F12 supplemented with 1% fetal calf serum (FCS). […]
The following experiment was performed in quadruplicate. […] Intracellular ATP was measured using a Cell Viability kit SL according to the manufacturer's instructions (#188-441, BioThema, Sweden). […]

[9] = molecular target: MC3 (Homo sapiens, UniProt P41968); conditions: printed in the column Selectivity (over MC3); cited from earlier work
MC3, sequence (P41968 whole entry, species assumed): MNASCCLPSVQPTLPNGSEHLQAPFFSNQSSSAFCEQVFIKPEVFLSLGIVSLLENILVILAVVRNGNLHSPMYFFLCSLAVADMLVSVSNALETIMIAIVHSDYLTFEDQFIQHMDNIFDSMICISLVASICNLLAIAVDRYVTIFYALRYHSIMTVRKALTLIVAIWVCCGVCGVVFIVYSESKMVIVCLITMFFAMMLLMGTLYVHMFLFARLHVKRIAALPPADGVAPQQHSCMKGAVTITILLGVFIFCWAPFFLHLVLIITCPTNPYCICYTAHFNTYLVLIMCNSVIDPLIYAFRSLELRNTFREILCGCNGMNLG

**Q.** With Agouti (87-132) (peptide) as the compound, how does the proliferation in the ATP-assay, at 400 nM (times control) [1] read?
**A.** The proliferation in the ATP-assay, at 400 nM (times control) was 1.6.

**Q.** For “[acetyl group]-Cys-Glu-His-(D-2-Nal)-Arg-Trp-Gly-Cys-Pro-Pro-Lys-Asp-[amide group] (Ac-CEH[d2Nal]RWGCPPKD-NH2; disulfide 1-8 (inferred)) [HS014]”, which “Selectivity (over MC3)” value [2] is on record?
**A.** The value was 10-fold.

**Q.** What about the Ki [2] of the same compound?
**A.** The Ki was 3.2 nM.

**Q.** And the “food intake and body weight” value [3]?
**A.** Its value is “considerable increase in food intake and body weight”.

**Q.** What about the BrdU incorporation [4] of the same compound?
**A.** The BrdU incorporation was “increase BrdU incorporation”.

**Q.** What about the “dose at which weight gain was first significant” value ([5]; i.c.v. infusion for two weeks) of the same compound?
**A.** The value was 62.5 ng/day.

**Q.** And the “dose with greatest weight gain” value ([5]; i.c.v. infusion for two weeks)?
**A.** Its value is 625 ng/day.

**Q.** What about the weight gain ([5]; i.c.v. infusion of 6.25, 62.5 or 625 ng/day for two weeks) of the same compound?
**A.** Its weight gain is “increased in a dose-dependent manner”.

**Q.** What about the “dose with greatest effect on neuronal stem/progenitor cell proliferation (BrdU counts, SVZ)” value [6] of the same compound?
**A.** Its value is 62.5 ng/day.

**Q.** What about the “persistence of improvement after administration was stopped” value [7] of the same compound?
**A.** The value was “maintained for at least two weeks”.

**Q.** And the “rotation at week 4 compared to pre-pump levels” value ([7]; then 2 weeks without treatment)?
**A.** The value was “approximately 30%”.

**Q.** What about the “net ipsiversive rotations at weeks 1-4 compared to the pre-pump response” value ([7]; all P<0.01) of the same compound?
**A.** Its value is “significant reduction”.

**Q.** And the ATP levels [8]?
**A.** Its ATP levels is “increase ATP levels”.

**Q.** For `NCCC(=O)N[C@H](Cc1ccc(Cl)cc1Cl)C(=O)N1CCN(c2ccccc2CNCCc2cccs2)CC1` [Compound10, 4-{(2R)-[3-Aminopropionylamido]-3-(2,4-dichlorophenyl)propionyl}-1-{2-[(2-thienyl)ethylaminomethyl]phenyl}piperazine], which “potency in cAMP assay” value [9] is on record?
**A.** The value was “No potency i cAMP”.

**Q.** With HS024 as the compound, how does the “Selectivity (over MC3)” value [2] read?
**A.** Its value is 20-fold.

**Q.** What about the Ki [2] of the same compound?
**A.** Its Ki is 0.29 nM.

**Q.** For “[acetyl group]-Cys-Glu-His-(diCl-D-Phe)-Arg-Trp-Gly-Cys-Pro-Pro-Lys-Asp-[amide group] (Ac-CEH[dPhe(diCl)]RWGCPPKD-NH2; not fully specified (bridges); also: cyclic, bridge not given here) [HS028]”, which “Selectivity (over MC3)” value [2] is on record?
**A.** The value was 80-fold.

**Q.** What about the Ki [2] of the same compound?
**A.** Its Ki is 0.95 nM.

**Q.** What about the ATP levels [8] of the same compound?
**A.** Its ATP levels is “increase ATP levels”.

**Q.** With “Agouti (87-132): endogenous MC4R antagonist peptide analogue (TPLSAPCVATRNSCKPPAPACCDPCASCQCRFFRSACSCRVLSLNC; UniProt P42127 87-132, looked up, fragment)” as the compound, how does the “increase in proliferation (ATP-assay)” value ([8]; at 400 nM) read?
**A.** The value was 1.6 times control.
